Test results: paper PMC8213385, “Development of a Fluorescent Assay to Search New Drugs Using Stable tdTomato-Leishmania, and the Selection of Galangin as a Candidate With Anti-Leishmanial Activity” (Frontiers in Cellular and Infection Microbiology, 2021)
Where two headings read alike, the source gives them in different places.

Tests used:
[1] = system: intracellular amastigotes of L. (L.) amazonensis; test: Microscopic assay, counting intracellular amastigotes in Raw 264.7 macrophages at the optic microscope; assay type: cell-based, Leishmania (Leishmania) amazonensis; details: for SI (Selectivity index): CC50 for macrophages/IC50 for Leishmania (intracellular amastigotes; Ma from fluorescence IC50); for IC50: Leishmania amazonensis, RAW264.7, Raw 264.7 macrophages, 48 h, optic microscope, read-out: Microscopic IC50 μM (SE), intracellular amastigotes
Experimental: (§1) Furthermore, the efficacy of MI was also determined against intracellular amastigotes of L. amaz/tc3 and L. amaz/wt. Raw 264.7 macrophages were plated in 96-well black plate (5 x 10^4 cells/well) and in eight well Lab-Tek tissue culture slides (6.6 x 10^4 cells/ml) (Nunc, USA). The cells were infected with promastigotes in stationary phase of L. amaz/tc3 and L. amaz/wt (1:20 ratio) at 33°C, 5% CO2. After incubation, the infected macrophages were washed to remove non-internalized parasites with PBS plus P-S. New RPMI-1640 medium with different concentrations of MI (20 to 0.62 µg/ml) was added to each well and incubated at 33°C, 5% CO2 during 48 h. The anti-leishmanial activity of MI was determined by measuring the fluorescence of intracellular amastigotes of L. amaz/tc3 in a plate reader (Tecan, Männedorf, Switzerland). The viability was calculated as mentioned above, and the IC50 was also estimated. Simultaneously, the leishmanicidal activity of MI against L. amaz/wt was determined by the microscopy test. In this case, the infected macrophages were stained with Diff Quik (Biopur S.R.L., Rosario, Argentina) and the number of intracellular amastigotes was determined in 200-500 macrophages in treated and control cultures per slide under the immersion lens microscope (100x) (Leitz Wetzlar, Germany). The infection index (II) and the % infectivity (I) were calculated by the following formulas: II = IM × A, where IM= infected macrophages (%), A= number of amastigotes per infected macrophages; and I(%)=IIT/IIc×100, where IIT= infection index in treated cultures, IIC= infection index in control cultures ([Ayres et al., 2008]). The IC50 of MI was calculated.
Then, to estimate the IC50 values of GAL, FI and MO; and to confirm the IC50 of RU, the activity was evaluated quantifying the intracellular amastigotes at the optic microscope. We followed the same methodology described for MI (microscopic assay) in “In Vitro, Fluorescent Assay Validation” section and the range of concentrations were for GAL (30 to 7.5 µM), FI (60 to 15 µM), RU and MO (200 to 50 µM), EGCG (142 a 17.7 µM).

[2] = system: promastigotes of L. amaz/tc3; test: Fluorescence assay against promastigotes of L. amaz/tc3 (tdTomato); assay type: cell-based, Leishmania (Leishmania) amazonensis; details: 48 h; for IC50: Leishmania; for Inhibition of parasite growth (promastigotes): doses ≤ 40 µM, fluorescence assay
Experimental: Then, we evaluated the efficacy of MI, a reference drug for leishmaniasis by the fluorescence method (L. amaz/tc3) and by the conventional method based in counting the parasite at the optic microscope (L. amaz/wt). Mid-log promastigotes of L. amaz/tc3 and L. amaz/wt were harvest and seeded (1 x 10^6/0.1 ml) with different concentrations of MI (40 to 0.6 µg/ml) in a 96-well plate at 23°C. Promastigotes cultured only in medium were the controls. Parasite viability was determined by measuring the fluorescence of L. amaz/tc3 in a plate reader (Tecan, Männedorf, Switzerland) and by counting the mobile promastigotes in a Neubauer chamber at the optic microscope (40x) (Leitz Wetzlar, Germany) at 48 h of incubation with MI. Viability was calculated with the formula: ViabilityL.amaz/tc3 =FLt/FLc×100 where, FLt is the fluorescence of treated culture, and FLc is the fluorescence of control; ViabilityL.amaz/wt=NPt/NPc×100 where, NPt is the number of promastigotes in the treated culture, and NPc is the number of promastigotes in control culture. Then, the 50% inhibitory concentration (IC50) of MI was estimated.
After fluorescence assay validation as it is described above, the method was used to evaluate in vitro the flavonoids anti-leishmanial activity. Mid-log promastigotes of L. amaz/tc3 were harvest and seeded with different concentrations of GAL (1,200 to 18.75 µM), MO, FI and RU (40 to 1.25 µM), and EGCG (300 to 18.75 µM). Positive control were promastigotes treated with PE (4 to 0.25 µM), the negative control were promastigotes cultured with medium only, and the blank was the culture medium. The parasites were incubated at 23°C for 48 h. The anti-leishmanial activity was determined by measuring the parasite fluorescence in a plate reader (Tecan, Männedorf, Switzerland). The viability was estimated as was described above for MI (fluorescent assay). The IC50 was calculated for each compound.

[3] = system: promastigotes of L. amaz/tc3; test: Transmission electron microscopy of treated promastigotes; assay type: cell-based, Leishmania (Leishmania) amazonensis; details: exposed to the IC50, 48 h
Experimental: Ultrastructural alterations in Leishmania induced by flavonoids with anti-leishmanial activity were analyzed by transmission electron microscopy (TEM). […] The control was a culture of L. amaz/tc3 incubated in complete RPMI-1640 medium. After 48 h of incubation, samples of L. amaz/tc3 promastigotes from each culture were fixed in modified Karnovsky’s solution (formaldehyde [2.66%], glutaraldehyde [1.66%]) and PBS 0.1M (pH 7,4), and incubated overnight at 4°C. The fixed samples were post-fixed with a 1/1 solution of PBS/2% osmium tetroxide (OsO4), overnight. Then the material was dehydrated and included in Spurr (Pelco, USA). Ultrathin sections were cut with an ultramicrotome (MT1, Sorvall, USA), mounted on copper grids, and contrasted with uranyl acetate (PELCO, USA) and lead citrate.

[4] = Cytotoxicity in macrophage cell line by the MTT method (colorimetric); assay type: cell-based; details: mouse
Experimental: The cytotoxicity against a cell line of macrophages (Raw 264.7) of GAL, MO, FI, RU, EGCG, PE, MI and MA was determined by the MTT method. Cells (3.3 x 10^5/ml) cells were treated with different concentrations of each compound during 48 h at 37°C, 5% CO2. The controls were incubated with RPMI-1640 medium. Briefly, 50 µl of MTT (2 mg/mL) was added to each well and, after 4 h of incubation at 37°C, 5% CO2, the reaction was stopped dissolving the formazan crystals with 100 µl/well of dimethyl sulfoxide. The relative amount of formazan produced by viable macrophages was determined using a spectrophotometer at 595 nm. The percentage of viable cells was calculated according to the formula (OD treated culture−OD blank)/(OD control−OD blank) ×100 as was described previously ([Adinehbeigi et al., 2017]). The cytotoxicity concentration 50% (CC50) was calculated for each compound.

[5] = system: intracellular amastigotes of L. amaz/tc3; test: Fluorescence assay in the macrophage-amastigote model (Raw 264.7 infected with L. amaz/tc3); assay type: cell-based, Leishmania (Leishmania) amazonensis
Experimental: as §1
The flavonoids anti-leishmanial activity was also evaluated against intracellular amastigotes. Macrophages (Raw 264.7) were plated in 96-well black plate (5 x 10^4 cell/well) and infected with promastigotes in stationary phase of L. amaz/tc3 (1:20 ratio) at 33°C, 5% CO2. After incubation, the infected macrophages were washed to remove non-internalized parasites with PBS plus P-S. New RPMI-1640 medium with different concentrations of GAL (30 to 3.75 µM), MO (300 to 37.5 µM), FI (65 to 8.12 µM), RU (300 to 37.5 µM) and EGCG (30 to 7.5 µM) was added to each well and incubated at 33°C, 5% CO2 for 48 h. Infected cells treated with Ma (136.6 to 34.1 µM) were the positive controls, and cells incubated only with RPMI-1640 were the negative control. The infected macrophages were incubated during 48 h at 33°C, 5% CO2. After treatment, the fluorescence of intracellular amastigotes of L. amaz/tc3 was measured in a plate reader (Tecan, Männedorf, Switzerland). The viability was determined as was described for MI (fluorescent assay). The selectivity index (SI) (CC50 for macrophages/IC50 for Leishmania) was calculated.

[6] = system: amastigotes of L. (L.) amazonensis; set-up: method as in Escobar et al., 2002; Morais-Teixeira et al., 2011; details: published data ref Escobar et al., 2002; Morais-Teixeira et al., 2011; cited from earlier work
[7] = system: promastigotes of L. (L.) amazonensis; set-up: method as in Escobar et al., 2002; Morais-Teixeira et al., 2011; details: published data ref Escobar et al., 2002; Morais-Teixeira et al., 2011; cited from earlier work
L. amaz/tc3 = test: Efficacy of Ma in BALB/c mice infected with L. amaz/tc3; assay type: in vivo
Experimental: Female BALB/c mice were infected in their hind right footpad with the stationary phase of promastigotes (5 x 10^6 parasites/0.05 ml) of L. amaz/tc3. Once a week the footpad swelling was measured with the digital caliper. Mice (n = 5) were treated with Ma in PBS (120 mg Sb/kg/day) starting at week 9 post-infection; the antimonial was administered by intraperitoneal injection (ip) once a day for 21 days. Control group (n = 5) received only PBS (ip). Within a week of finishing the Ma treatment, the parasite load was quantified by three methods, fluorescence (FL), optic microscope (OM) and limiting dilution assay (LD) in treated and control group. The FL method was carried out as follows, the hind right footpad was excised and weighed; then the tissue was homogenized using a glass grinder with 5 ml of complete RPMI-1640 medium and the intracellular amastigotes of L. amaz/tc3 were released. A sample (0.1 ml) of the homogenate was centrifuged to replace the medium for PBS, then it was plated in duplicates in a 96-well black culture plate with clear bottom (Nunc, USA) and the fluorescence was measured in a plate reader (Tecan, Männedorf, Switzerland). Besides, a calibration curve was used to extrapolate the sample fluorescence to the number of amastigotes. For that, a pool of amastigotes from control samples was used; amastigotes (1 x 10^6 to 1.5 x 10^4) were plated in duplicates in a 96-well black culture plate with clear bottom, and the fluorescence was measured in a plate reader (Tecan, Männedorf, Switzerland). The number of amastigotes was adjusted to the weight of the sample.
Another sample of the tissue homogenate was used to quantify the parasite loads by direct counting in a Neubauer chamber under an optical microscope (40X) (Leitz Wetzlar, Germany), and the concentration of parasites (amastigotes/ml) of each homogenate was determined ([Hill et al., 1983]). The total number of parasites was adjusted to the weight of each tissue sample.
Finally, a sample of the tissue homogenate was also used to quantify the parasite loads by the LD assay ([Lima et al., 1997]). After serial dilutions in 96-well plates, the samples were incubated at 23°C for 14 days and the number of viable promastigotes was determined from the highest dilution at which the parasite could grow.

[8] = read-out: IC50 against promastigotes of L. amaz/tc3
[9] = Raw 264.7 macrophage cell line, Raw 264.7, MTT, 48 h, read-out: Colorimetric CC50 μM (SE)
[10] = 120 mg Sb/kg/day ip, 21 days, week 13, footpad

Molecule: O=C(O[C@@H]1Cc2c(O)cc(O)cc2O[C@@H]1c1cc(O)c(O)c(O)c1)c1cc(O)c(O)c(O)c1 [EGCG, (-)-epigallocatechin gallate, reference compound]
- SI (Selectivity index) [1]: 1.5
- IC50 [1]: 130 µM
- IC50 [2, 8]: 120 ± 17.6 µM
- Ultrastructural alterations in promastigotes (TEM) [3]: intense cytoplasmic vacuolization
- CC50 at 48 h [4, 9]: 194 µM

Molecule: O=c1c(O)c(-c2ccc(O)c(O)c2)oc2cc(O)ccc12 [FI, fisetin]
- SI (Selectivity index) [1]: < 1
- IC50 [1]: > 60 µM
- Fluorescence Inhibition (%) of amastigotes ([5]; 15 µM, 48 h): 31%
- inhibition at 15 µM ([5]; Leishmania, RAW264.7, 48 h, read-out: Fluorescence Inhibition (%) of amastigotes, 15 µM, 48 h): 29 to 31%
- Inhibition of parasite growth (promastigotes) [2]: no inhibition
- CC50 at 48 h [4, 9]: 52.6 µM

Molecule: CCCCCCCCCCCCCCCCOP(=O)([O-])OCC[N+](C)(C)C [MI, Miltefosine, reference compound]
- IC50 ([5]; Leishmania, RAW264.7, 48 h, read-out: IC50 against intracellular amastigotes): 1.65 ± 0.75 µg/mL
- IC50 ([2]; read-out: IC50 against promastigotes): 5.25 ± 0.05 µg/mL
- Effective dose for amastigotes [6]: 1.31 µg/mL
- Effective dose for promastigotes [7]: 7.54 µg/mL

Molecule: O=c1c(O)c(-c2ccc(O)cc2O)oc2cc(O)cc(O)c12 [MO, morin]
- SI (Selectivity index) [1]: > 1.8
- IC50 [1]: 122 µM
- inhibition at 37.5 µM ([5]; Leishmania, RAW264.7, 48 h, read-out: Fluorescence Inhibition (%) of amastigotes, 37.5 µM, 48 h): 13.5%
- Inhibition of parasite growth (promastigotes) [2]: no inhibition
- CC50 at 48 h [4, 9]: > 230 µM

Molecule: N=C(N)c1ccc(OCCCCCOc2ccc(C(=N)N)cc2)cc1 [PE, Pentamidine isethionate, reference compound]
- IC50 [2, 8]: 0.67 ± 0.18 µM

Molecule: C[C@@H]1O[C@@H](OC[C@H]2O[C@@H](Oc3c(-c4ccc(O)c(O)c4)oc4cc(O)cc(O)c4c3=O)[C@H](O)[C@@H](O)[C@@H]2O)[C@H](O)[C@H](O)[C@H]1O [RU, rutin]
- SI (Selectivity index) [1]: > 1.8
- IC50 [1]: 133 µM
- IC50 ([5]; Leishmania, RAW264.7, 48 h, read-out: Fluorescence IC50 μM (SE), intracellular amastigotes): 171 µM
- Inhibition of parasite growth (promastigotes) [2]: no inhibition
- CC50 at 48 h [4]: > 240 µM

Molecule: Meglumine antimoniate [Ma]
- Inhibition of parasite burden, fluorescence method (FL) (L. amaz/tc3; [10]): 55%
- Inhibition of parasite burden, limiting dilution (LD) assay (L. amaz/tc3; [10]): 54%
- Inhibition of parasite burden, optic microscope (OM) (L. amaz/tc3; [10]): 75%
- Footpad swelling versus control group (L. amaz/tc3; 120 mg Sb/kg/day ip, week 13, p < 0.05): significant difference
- Percentage of inhibition in the parasite load, fluorescence and LD assay (L. amaz/tc3; end of treatment, both methods): 54-55%
- IC50 ([5]; Raw 264.7 macrophages, 48 h, 33°C, read-out: Fluorescence IC50 μM (SE), intracellular amastigotes): 80.3 µM
